Measurements reported in PMC6259277, “Synthesis, Gastroprotective Effect and Cytotoxicity of New Amino Acid Diterpene Monoamides and Diamides” (Molecules, 2010).

Key:
[1] = Cytotoxicity, neutral red uptake assay, AGS; assay type: cell-based; settings: human, AGS gastric adenocarcinoma cells, confluent monolayers, confluent cultures, 0-1000 µM, mean ± SD
Protocol: (§1) Human gastric adenocarcinoma cells AGS (ATCC CRL-1739) were grown as monolayers in Ham F-12 medium containing 1.0 mM L-glutamine and 1.5 g/L sodium bicarbonate, supplemented with 10% heat-inactivated FBS, 100 IU/mL penicillin and 100 µg/mL streptomycin in a humidified incubator with 5% CO2 in air at 37 °C. The cell passage was maintained between 42 and 48. The medium was changed every 2 days. Confluent cultures of MRC-5, AGS and Hep G2 cells were treated with medium containing the compounds at concentrations ranging from 0 up to 1000 µM. The products were first dissolved in DMSO and then in the corresponding culture medium supplemented with 2% FBS. The final content of DMSO in the test medium and controls was 1%. Cells were exposed for 24 h to the assayed compounds. Untreated cells served as controls. Each concentration was tested in quadruplicate together with the control and repeated three times in separate experiments. At the end of the incubation, the neutral red uptake (NRU) assay was carried out to determine cell viability. To calculate the IC50 values (concentration that produces a 50% inhibitory effect on the evaluated parameter) the results were transformed to percentage of controls and the IC50 value was graphically obtained from the dose-response curves.

[2] = Cytotoxicity, neutral red uptake assay, MRC-5; assay type: cell-based; settings: human, MRC-5 normal lung fibroblasts, confluent monolayers, confluent cultures, 0-1000 µM, mean ± SD
Protocol: (§2) Human normal lung fibroblasts MRC-5 (ATCC CCL-171) and Hep G2 cells (ATCC HB-8065) were grown as monolayers in minimum essential Eagle´s medium (MEM), with Earle's salts, 2.0 mM L-glutamine (Sigma Chemical Co.) and 2.0 g/L sodium bicarbonate (Sigma Chemical Co.), supplemented with 10% heat-inactivated fetal bovine serum (FBS), 100 IU/mL penicillin and 100 µg/mL streptomycin in a humidified incubator with 5% CO2 in air at 37 °C. Cell passage was maintained between 10 and 16 for MRC-5 and between 79 and 82 for Hep G2 cells. The medium was changed every 2 days. Culture media, antibiotics and FBS were obtained from Invitrogen Corp.
as §1, with “Confluent” for “Human gastric adenocarcinoma cells AGS (ATCC CRL-1739) were grown as monolayers in Ham F-12 medium containing 1.0 mM L-glutamine and 1.5 g/L sodium bicarbonate, supplemented with 10% heat-inactivated FBS, 100 IU/mL penicillin and 100 µg/mL streptomycin in a humidified incubator with 5% CO2 in air at 37 °C. The cell passage was maintained between 42 and 48. The medium was changed every 2 days. Confluent”

[3] = Cytotoxicity, neutral red uptake assay, Hep G2; assay type: cell-based; settings: human, Hep G2 cells, confluent monolayers, confluent cultures, 0-1000 µM, mean ± SD
Protocol: as §2
as §1, with “Confluent” for “Human gastric adenocarcinoma cells AGS (ATCC CRL-1739) were grown as monolayers in Ham F-12 medium containing 1.0 mM L-glutamine and 1.5 g/L sodium bicarbonate, supplemented with 10% heat-inactivated FBS, 100 IU/mL penicillin and 100 µg/mL streptomycin in a humidified incubator with 5% CO2 in air at 37 °C. The cell passage was maintained between 42 and 48. The medium was changed every 2 days. Confluent”

[4] = test system: ethanol/HCl-induced gastric lesions; experiment: Ethanol/HCl-induced gastric lesion (ulcer) model in mice; assay type: in vivo; settings: for Gastroprotective effect: Lesion index: mean ± SD; for gastric lesion reduction at the higher doses: dose-response study, higher oral doses (50 and 100 mg/kg)
Protocol: The gastroprotective activity of the compounds was determined in the ethanol/HCl-induced lesion model in mice. The purity of the tested compounds was higher than 95% by NMR analysis. Male Swiss albino mice weighing 30 ± 3 g were used. Animals were fed on certified Champion diet with free access to water under standard conditions of 12 h dark-light period, 50% relative humidity and 22 °C room temperature. Mice were randomly distributed into groups of eight animals each and fasted for 24 h with free access to water previous to the experiment. Fasting prior to ulcerogenic assays was used because 0.2 mL of the reference antisecretory drug lansoprazole (2-[[[3-methyl-4-(2,2,2-trifluroethoxy)-2-pyridyl]methyl]sulfinyl]benzimidazole) and the amides were administered orally. To keep the animal number to a minimum, dose-response studies were performed with the leucine derivatives 13 and 18 to set the conditions for single-dose comparison of gastroprotective effect. For the selected parent compounds, three doses were used: 25, 50 and 100 mg/kg. Fifty min after oral administration of the compounds, lansoprazole (20 mg/kg) or the vehicle (12% Tween 80, 10 mL/kg), all groups were orally treated with 0.2 mL of a solution containing 60% ethanol/0.3 M HCl (ethanol/HCl) for gastric lesion induction. Animals were sacrificed by cervical dislocation 1 h after the administration of ethanol/HCl, and the stomachs excised and inflated by injection of 5% formalin (1 mL). The ulcerated stomachs were fixed in 5% formalin for 30 min and opened along the greater curvature. The length (mm) of each lesion was measured, and the lesion index expressed as the sum of the length of all lesions. For comparison purposes, the products 1-5, 7-12, 14-16, 19 and 20 were assessed at a single oral dose of 25 mg/kg. The protocols were approved by the Universidad de Talca Institutional Animal Care and Use Committee, which follows the recommendations of the Canadian Council on Animal Care. Tween 80 and lansoprazole (> 98% purity by HPLC) were purchased from Sigma Chemical Co.
Results were expressed as the mean ± SD. In all experiments, statistical differences between several treatments and their respective control were determined by one-way analysis of variance (ANOVA) and when the F value was significant, post hoc differences were determined by the Dunnett's multiple comparison test. The level of significance was set at P < 0.05. All statistical analyses were performed using the software Statistica 5.1 (StatSoft, Inc.) and Statistical Package S-Plus 2000.

[5] = Mus musculus, po, single oral dose 25 mg/kg, compared with untreated controls, read-out: Gastroprotective effect: % Lesion reduction
[6] = single oral dose 25 mg/kg, sum of lesion lengths
[7] = single oral dose 25 mg/kg, sum of lesion lengths, 25 mg/kg

Compound	IC50 at 24 h [1]	IC50 at 24 h [2]	IC50 at 24 h [3]	inhibition in vivo at 25 mg/kg [4, 5]	Gastroprotective effect: Lesion index [4, 6]	inhibition in vivo at 20 mg/kg ([4]; Mus musculus, po, reference drug at 20 mg/kg oral, compared with untreated controls, read-out: Gastroprotective effect: % Lesion reduction)	Gastroprotective effect: Lesion index ([4]; reference drug at 20 mg/kg oral, 20 mg/kg)	Gastroprotective effect: Lesion index ([4]; reference drug at 20 mg/kg oral, listed as lansoprazole, 20 mg/kg)	gastric lesion reduction at the higher doses [4]	Gastroprotective effect: % Lesion reduction ([4]; single oral dose 25 mg/kg, compared with untreated controls, 25 mg/kg)	Gastroprotective effect: Lesion index [4, 7]
C=C1CCC2[C@](C)(CCC[C@]2(C)C(=O)N2CCC[C@H]2C(=O)OC)[C@H]1CC[C@@H](C)CC(=O)N1CCC[C@H]1C(=O)OC (some centres unmarked) [Compound 19, Labd-8(17)-en-15,19-dioic acid, 15,19-diprolyl methyl ester amide]	206 ± 10 µM	267 ± 14 µM	316 ± 16 µM	87.8%	5.6 ± 3.2 mm						
Cc1c(OCC(F)(F)F)ccnc1C[S+]([O-])c1nc2ccccc2[nH]1 (centres unmarked) [Lansoprazole, 2-[[[3-methyl-4-(2,2,2-trifluroethoxy)-2-pyridyl]methyl]sulfinyl]benzimidazole, reference compound]	162 ± 6 µM	306 ± 11 µM	221 ± 9 µM			79.3%	9.5 ± 2.5 mm	9.5 ± 2.5 mm			
COC(=O)[C@H](Cc1c[nH]c2ccccc12)NC(=O)C[C@H](C)CCC1=C(C)CCC2[C@@](C)(C(=O)N[C@@H](Cc3c[nH]c4ccccc34)C(=O)OC)CCC[C@]12C (some centres unmarked) [Compound 10, Labd-8(9)-en-15,19-dioic acid, 15,19-ditryptophanyl methyl ester amide]	> 1000 µM	> 1000 µM	> 1000 µM	61.7%	17.6 ± 7.8 mm						
C=C1CCC2[C@](C)(CCC[C@]2(C)C(=O)N[C@@H](Cc2c[nH]c3ccccc23)C(=O)OCC)[C@H]1CC[C@@H](C)CC(=O)N[C@@H](Cc1c[nH]c2ccccc12)C(=O)OCC (some centres unmarked) [Compound 20, Labd-8(17)-en-15,19-dioic acid, 15,19-ditryptophanyl ethyl ester amide]	> 1000 µM	> 1000 µM	> 1000 µM	68.9%	14.3 ± 10.7 mm						
COC(=O)CNC(=O)C[C@H](C)CCC1=C(C)CCC2[C@@](C)(C(=O)NCC(=O)OC)CCC[C@]12C (some centres unmarked) [Compound 8, Labd-8(9)-en-15,19-dioic acid, 15,19-diglycyl methyl ester amide]	592 ± 30 µM	890 ± 45 µM	841 ± 42 µM	62%	17.5 ± 9.9 mm						
C=C1CCC2[C@](C)(CCC[C@]2(C)C(=O)O)[C@H]1CC[C@@H](C)CC(=O)N[C@@H](CC(C)C)C(=O)OC (some centres unmarked) [Compound 13, Labd-8(17)-en-15,19-dioic acid, 15-leucyl methyl ester amide]	308 ± 17 µM	449 ± 29 µM	808 ± 48 µM	~65.6%					79-89%	65.6%	15.8 ± 6.2 mm
COC(=O)[C@@H]1CCCN1C(=O)C[C@H](C)CCC1=C(C)CCC2[C@@](C)(C(=O)O)CCC[C@]12C (some centres unmarked) [Compound 4, Labd-8(9)-en-15,19-dioic acid, 15-prolyl methyl ester amide]	167 ± 7 µM	288 ± 11 µM	321 ± 14 µM	70.9%	13.4 ± 6.8 mm						
C=C1CCC2[C@](C)(CCC[C@]2(C)C(=O)N[C@@H](CC(C)C)C(=O)OC)[C@H]1CC[C@@H](C)CC(=O)N[C@@H](CC(C)C)C(=O)OC (some centres unmarked) [Compound 18, Labd-8(17)-en-15,19-dioic acid, 15,19-dileucyl methyl ester amide]	> 1000 µM	495 ± 35 µM	> 1000 µM	~49.6%					79-89%		23.2 ± 12.9 mm
COC(=O)[C@@H](NC(=O)C[C@H](C)CCC1=C(C)CCC2[C@@](C)(C(=O)O)CCC[C@]12C)C(C)C (some centres unmarked) [Compound 2, Labd-8(9)-en-15,19-dioic acid, 15-valyl methyl ester amide]	> 1000 µM	> 1000 µM	> 1000 µM	58.5%	19.1 ± 8.3 mm						
COC(=O)CNC(=O)C[C@H](C)CCC1=C(C)CCC2[C@@](C)(C(=O)O)CCC[C@]12C (some centres unmarked) [Compound 1, Labd-8(9)-en-15,19-dioic acid, 15-glycyl methyl ester amide]	189 ± 9 µM	447 ± 26 µM	242 ± 13 µM	73.3%	12.3 ± 7.6 mm						
C=C1CCC2[C@](C)(CCC[C@]2(C)C(=O)NCC(=O)OC)[C@H]1CC[C@@H](C)CC(=O)NCC(=O)OC (some centres unmarked) [Compound 16, Labd-8(17)-en-15,19-dioic acid, 15,19-diglycyl methyl ester amide]	483 ± 29 µM	> 1000 µM	529 ± 36 µM	73.5%	12.2 ± 6.9 mm						
COC(=O)[C@@H]1CCCN1C(=O)C[C@H](C)CCC1=C(C)CCC2[C@@](C)(C(=O)N3CCC[C@H]3C(=O)OC)CCC[C@]12C (some centres unmarked) [Compound 9, Labd-8(9)-en-15,19-dioic acid, 15,19-diprolyl methyl ester amide]	82 ± 4 µM	119 ± 7 µM	67 ± 3 µM	60%	18.4 ± 11.3 mm						
C=C1CCC2[C@](C)(CCC[C@]2(C)C(=O)O)[C@H]1CC[C@@H](C)CC(=O)N[C@@H](Cc1c[nH]c2ccccc12)C(=O)OC (some centres unmarked) [Compound 15, Labd-8(17)-en-15,19-dioic acid, 15-tryptophanyl methyl ester amide]	> 1000 µM	> 1000 µM	> 1000 µM	73.7%	12.1 ± 4.7 mm						
C=C1CCC2[C@](C)(CCC[C@]2(C)C(=O)O)[C@H]1CC[C@@H](C)CC(=O)NCC(=O)OC (some centres unmarked) [Compound 11, Labd-8(17)-en-15,19-dioic acid, 15-glycyl methyl ester amide]	361 ± 18 µM	> 1000 µM	541 ± 22 µM	71.9%	12.9 ± 8.1 mm						
